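48-hour exposure; five concentrations; linearly interpolated endpoints. GI50 is the concentration that inhibits growth by half.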 Calls of active or inactive are those of the source. Rule as the data show it: active = GI50 up to about 1.1 µM and inactive = higher.
Key:
Experiment in all cases: DTP human tumour cell line panel, 48 h
SNB-19 = tested on: SNB-19
UO-31 = tested on: UO-31
HOP-62 = tested on: HOP-62
HT-29 = tested on: HT-29
MOLT-4 = tested on: MOLT-4
A549 = tested on: A549
RXF 393 = tested on: RXF 393
CAKI-1 = tested on: CAKI-1
RPMI-8226 = tested on: RPMI-8226
NCI-H522 = tested on: NCI-H522
OVCAR-8 = tested on: OVCAR-8
SK-MEL-28 = tested on: SK-MEL-28
COLO 205 = tested on: COLO 205
Malme-3M = tested on: Malme-3M
NCI-H226 = tested on: NCI-H226
HL-60 = tested on: HL-60
SN12C = tested on: SN12C
SF-539 = tested on: SF-539
SR = tested on: SR

Row | Structure (SMILES) | GI50 (SNB-19) | GI50 (UO-31) | GI50 (HOP-62) | GI50 (HT-29) | GI50 (MOLT-4) | GI50 (A549) | GI50 (RXF 393) | GI50 (CAKI-1) | GI50 (RPMI-8226) | GI50 (NCI-H522) | GI50 (OVCAR-8) | GI50 (SK-MEL-28) | GI50 (COLO 205) | GI50 (Malme-3M) | GI50 (NCI-H226) | GI50 (HL-60) | GI50 (SN12C) | GI50 (SF-539) | GI50 (SR)
1 | CCCCN1CCC(O)(c2cc(C(=O)O)[nH]c2-c2cc(C)no2)C1=O (stereo not drawn) | > 100 µM (inactive) | > 100 µM (inactive) | > 100 µM (inactive) | > 100 µM (inactive) | > 100 µM (inactive) | > 100 µM (inactive) | 43.5 µM (inactive) | > 100 µM (inactive) | > 100 µM (inactive) | > 100 µM (inactive) | > 100 µM (inactive) | > 100 µM (inactive) | > 100 µM (inactive) | > 100 µM (inactive) |  |  |  |  | 
2 | N/N=C1\C(=O)N(c2ccc(Cl)cc2Cl)C(=O)C(=O)C1c1nc2ccccc2o1 (stereo not drawn) | > 100 µM (inactive) | 48.3 µM (inactive) | > 100 µM (inactive) | > 100 µM (inactive) | > 100 µM (inactive) | > 100 µM (inactive) |  | > 100 µM (inactive) | > 100 µM (inactive) | > 100 µM (inactive) | > 100 µM (inactive) | > 100 µM (inactive) | > 100 µM (inactive) | > 100 µM (inactive) | > 100 µM (inactive) | > 100 µM (inactive) | > 100 µM (inactive) | > 100 µM (inactive) | 
3 | Cc1ccc2nc(NC(=O)C(=O)C(C(=O)c3ccc4ccccc4c3)C3OC(=O)c4ccccc43)sc2c1 (stereo not drawn) | 6.55 µM (inactive) | 14.6 µM (inactive) | 11 µM (inactive) | 15.2 µM (inactive) |  | 11.5 µM (inactive) | 1.87 µM (inactive) | 12.2 µM (inactive) | 9.25 µM (inactive) | 12 µM (inactive) | 7.74 µM (inactive) | 5.21 µM (inactive) | 15.1 µM (inactive) | 10.1 µM (inactive) | 2.1 µM (inactive) |  | 13.5 µM (inactive) | 2.63 µM (inactive) | 3.33 µM (inactive)
4 | CC12C=CC(C)(C3C(=O)C4C(C(=O)C31)C1(C)C=CC4(C)[S+]1[O-])[S+]2[O-] (stereo not drawn) | 50.6 µM (inactive) | > 100 µM (inactive) | > 100 µM (inactive) | 47.6 µM (inactive) |  | > 100 µM (inactive) | > 100 µM (inactive) | > 100 µM (inactive) |  | 38.4 µM (inactive) | 56 µM (inactive) |  | 34.9 µM (inactive) | 83.4 µM (inactive) | > 100 µM (inactive) |  |  | 25.4 µM (inactive) | 
5 | CC(=O)O[C@H]1CC[C@@]2(C)C(=CC[C@@H]3C2CC[C@]2(C)Nc4[nH]ncc4CC32)C1 (stereo partly drawn) |  | 87.7 µM (inactive) | > 100 µM (inactive) | 16.9 µM (inactive) | 15.4 µM (inactive) | 32.2 µM (inactive) | 30.4 µM (inactive) | > 100 µM (inactive) | 25.5 µM (inactive) |  | 29.9 µM (inactive) | 32.2 µM (inactive) |  | 25.6 µM (inactive) | > 100 µM (inactive) | 20.5 µM (inactive) |  | 20 µM (inactive) | 
6 | COC(C)(C)[C@H](O)C(O)CC(C)[C@@H]1CCC23CC12CCC1[C@@]2(C)CCC(OC(C)=O)C(C)(C)C2CC(OC2OC(COC(C)=O)C(O)C(O)C2O)[C@]13C (stereo partly drawn) | 6.84 µM (inactive) | 6.95 µM (inactive) | 8.49 µM (inactive) | 1.22 µM (inactive) | 4.19 µM (inactive) | 2.94 µM (inactive) | 4.05 µM (inactive) | 2.92 µM (inactive) | 0.264 µM (active) | 1.83 µM (inactive) | 4.56 µM (inactive) | 4.26 µM (inactive) | 3.48 µM (inactive) | 7.87 µM (inactive) | 8.32 µM (inactive) | 1.35 µM (inactive) | 2.99 µM (inactive) | 2.72 µM (inactive) | 

Source: ChEMBL document CHEMBL1201862, “PubChem BioAssay data set” (2004)
